What was measured:
[1] = (§1) The drug is tested on Z-024 corresponding to pig gut metagenome with ENA study accession number: PRJEB37062 and ENA sample accession number: ERS12561823 for biotransformation under anaerobic condition. The drug concentrations were measured over 9 timepoints collected between 0 and 24 hours of incubation by liquid-chromatography-coupled mass spectrometry (LC–MS); details: 2 µM
[2] = as §1, with “Z-019” for “Z-024”, “rat” for “pig”, “ERS12561818” for “ERS12561823”; details: 2 µM
[3] = as §1, with “Z-017” for “Z-024”, “mouse” for “pig”, “ERS12561816” for “ERS12561823”; details: 2 µM
[4] = as §1, with “Z-016” for “Z-024”, “mouse” for “pig”, “ERS12561815” for “ERS12561823”; details: 2 µM
[5] = as §1, with “Z-007” for “Z-024”, “rat” for “pig”, “ERS12561807” for “ERS12561823”; details: 2 µM
[6] = as §1, with “WLS-170” for “Z-024”, “human” for “pig”, “ERS12561762” for “ERS12561823”; details: 2 µM
[7] = as §1, with “WLS-073” for “Z-024”, “human” for “pig”, “ERS12561749” for “ERS12561823”; details: 2 µM
[8] = as §1, with “WLS-069” for “Z-024”, “human” for “pig”, “ERS12561748” for “ERS12561823”; details: 2 µM
[9] = as §1, with “WLS-052” for “Z-024”, “human” for “pig”, “ERS12561747” for “ERS12561823”; details: 2 µM
[10] = human gut metagenome, 24 h, 2 µM
[11] = human gut metagenome, 24 h, 2 µM; remark: listed apart in the source
[12] = human gut metagenome, 24 h, 2 µM; remark: listed apart in the source
[13] = human gut metagenome, 24 h, 2 µM; remark: listed apart in the source
[14] = human gut metagenome, 24 h, 2 µM; remark: listed apart in the source
[15] = human gut metagenome, 24 h, 2 µM; remark: listed apart in the source
[16] = human gut metagenome, 24 h, 2 µM; remark: listed apart in the source
[17] = human gut metagenome, 24 h, 2 µM; remark: listed apart in the source
[18] = human gut metagenome, 24 h, 2 µM; remark: listed apart in the source
[19] = human gut metagenome, 24 h, 2 µM; remark: listed apart in the source
[20] = human gut metagenome, 24 h, 2 µM; remark: listed apart in the source
Also: call rule not given here.

## COc1ccccc1OCCNCC(O)COc1cccc2[nH]c3ccccc3c12 (stereo not given) [CARVEDILOL]
[1]
  Bacterial Biotransformation: Compound metabolized
[2]
  Bacterial Biotransformation: Compound NOT metabolized
[3]
  Bacterial Biotransformation: Compound NOT metabolized
[4]
  Bacterial Biotransformation: Compound NOT metabolized
[5]
  Bacterial Biotransformation: Compound NOT metabolized
[6]
  Bacterial Biotransformation: Compound metabolized
[7]
  Bacterial Biotransformation: Compound metabolized
[8]
  Bacterial Biotransformation: Compound metabolized
[9]
  Bacterial Biotransformation: Compound metabolized
[10]
  Bacterial Biotransformation: Compound metabolized
[11]
  Bacterial Biotransformation: Compound NOT metabolized
[12]
  Bacterial Biotransformation: Compound NOT metabolized
[13]
  Bacterial Biotransformation: Compound metabolized
[14]
  Bacterial Biotransformation: Compound metabolized
[15]
  Bacterial Biotransformation: Compound metabolized
[16]
  Bacterial Biotransformation: Compound NOT metabolized
[17]
  Bacterial Biotransformation: Compound NOT metabolized
[18]
  Bacterial Biotransformation: Compound metabolized
[19]
  Bacterial Biotransformation: Compound metabolized
[20]
  Bacterial Biotransformation: Compound NOT metabolized

## CC(C)(C)NCC(O)c1cc(Cl)c(N)c(Cl)c1 (stereo not given) [CLENBUTEROL]
[1]
  Bacterial Biotransformation: Compound NOT metabolized
[2]
  Bacterial Biotransformation: Compound NOT metabolized
[3]
  Bacterial Biotransformation: Compound NOT metabolized
[4]
  Bacterial Biotransformation: Compound NOT metabolized
[5]
  Bacterial Biotransformation: Compound NOT metabolized
[6]
  Bacterial Biotransformation: Compound NOT metabolized
[7]
  Bacterial Biotransformation: Compound NOT metabolized
[8]
  Bacterial Biotransformation: Compound NOT metabolized
[9]
  Bacterial Biotransformation: Compound NOT metabolized
[10]
  Bacterial Biotransformation: Compound NOT metabolized
[11]
  Bacterial Biotransformation: Compound NOT metabolized
[12]
  Bacterial Biotransformation: Compound NOT metabolized
[13]
  Bacterial Biotransformation: Compound NOT metabolized
[14]
  Bacterial Biotransformation: Compound NOT metabolized
[15]
  Bacterial Biotransformation: Compound NOT metabolized
[16]
  Bacterial Biotransformation: Compound NOT metabolized
[17]
  Bacterial Biotransformation: Compound NOT metabolized
[18]
  Bacterial Biotransformation: Compound NOT metabolized
[19]
  Bacterial Biotransformation: Compound NOT metabolized
[20]
  Bacterial Biotransformation: Compound NOT metabolized

## C[N+]12CCC(CC1)C(OC(=O)C(O)(c1ccccc1)c1ccccc1)C2.[Br-] (stereo not given) [CLIDINIUM BROMIDE]
[1]
  Bacterial Biotransformation: Compound metabolized
[2]
  Bacterial Biotransformation: Compound NOT metabolized
[3]
  Bacterial Biotransformation: Compound NOT metabolized
[4]
  Bacterial Biotransformation: Compound NOT metabolized
[5]
  Bacterial Biotransformation: Compound NOT metabolized
[6]
  Bacterial Biotransformation: Compound metabolized
[7]
  Bacterial Biotransformation: Compound NOT metabolized
[8]
  Bacterial Biotransformation: Compound NOT metabolized
[9]
  Bacterial Biotransformation: Compound metabolized
[10]
  Bacterial Biotransformation: Compound NOT metabolized
[11]
  Bacterial Biotransformation: Compound NOT metabolized
[12]
  Bacterial Biotransformation: Compound NOT metabolized
[13]
  Bacterial Biotransformation: Compound NOT metabolized
[14]
  Bacterial Biotransformation: Compound metabolized
[15]
  Bacterial Biotransformation: Compound NOT metabolized
[16]
  Bacterial Biotransformation: Compound NOT metabolized
[17]
  Bacterial Biotransformation: Compound NOT metabolized
[18]
  Bacterial Biotransformation: Compound NOT metabolized
[19]
  Bacterial Biotransformation: Compound metabolized
[20]
  Bacterial Biotransformation: Compound NOT metabolized

## Clc1cccc(Cl)c1N=C1NCCN1 [CLONIDINE]
[1]
  Bacterial Biotransformation: Compound NOT metabolized
[2]
  Bacterial Biotransformation: Compound NOT metabolized
[3]
  Bacterial Biotransformation: Compound NOT metabolized
[4]
  Bacterial Biotransformation: Compound NOT metabolized
[5]
  Bacterial Biotransformation: Compound NOT metabolized
[6]
  Bacterial Biotransformation: Compound metabolized
[7]
  Bacterial Biotransformation: Compound NOT metabolized
[8]
  Bacterial Biotransformation: Compound metabolized
[9]
  Bacterial Biotransformation: Compound NOT metabolized
[10]
  Bacterial Biotransformation: Compound NOT metabolized
[11]
  Bacterial Biotransformation: Compound NOT metabolized
[12]
  Bacterial Biotransformation: Compound NOT metabolized
[13]
  Bacterial Biotransformation: Compound NOT metabolized
[14]
  Bacterial Biotransformation: Compound metabolized
[15]
  Bacterial Biotransformation: Compound metabolized
[16]
  Bacterial Biotransformation: Compound NOT metabolized
[17]
  Bacterial Biotransformation: Compound NOT metabolized
[18]
  Bacterial Biotransformation: Compound NOT metabolized
[19]
  Bacterial Biotransformation: Compound NOT metabolized
[20]
  Bacterial Biotransformation: Compound NOT metabolized

## COC(=O)[C@H](c1ccccc1Cl)N1CCc2sccc2C1.O=S(=O)(O)O [CLOPIDOGREL BISULFATE]
[1]
  Bacterial Biotransformation: Compound metabolized
[2]
  Bacterial Biotransformation: Compound NOT metabolized
[3]
  Bacterial Biotransformation: Compound metabolized
[4]
  Bacterial Biotransformation: Compound metabolized
[5]
  Bacterial Biotransformation: Compound NOT metabolized
[6]
  Bacterial Biotransformation: Compound metabolized
[7]
  Bacterial Biotransformation: Compound metabolized
[8]
  Bacterial Biotransformation: Compound metabolized
[9]
  Bacterial Biotransformation: Compound metabolized
[10]
  Bacterial Biotransformation: Compound metabolized
[11]
  Bacterial Biotransformation: Compound metabolized
[12]
  Bacterial Biotransformation: Compound metabolized
[13]
  Bacterial Biotransformation: Compound metabolized
[14]
  Bacterial Biotransformation: Compound metabolized
[15]
  Bacterial Biotransformation: Compound metabolized
[16]
  Bacterial Biotransformation: Compound metabolized
[17]
  Bacterial Biotransformation: Compound metabolized
[18]
  Bacterial Biotransformation: Compound metabolized
[19]
  Bacterial Biotransformation: Compound metabolized
[20]
  Bacterial Biotransformation: Compound metabolized

## O=P1(N(CCCl)CCCl)NCCCO1 (stereo not given) [CYCLOPHOSPHAMIDE ANHYDROUS]
[1]
  Bacterial Biotransformation: Compound NOT metabolized
[2]
  Bacterial Biotransformation: Compound NOT metabolized
[3]
  Bacterial Biotransformation: Compound NOT metabolized
[4]
  Bacterial Biotransformation: Compound NOT metabolized
[5]
  Bacterial Biotransformation: Compound NOT metabolized
[6]
  Bacterial Biotransformation: Compound metabolized
[7]
  Bacterial Biotransformation: Compound NOT metabolized
[8]
  Bacterial Biotransformation: Compound metabolized
[9]
  Bacterial Biotransformation: Compound NOT metabolized
[10]
  Bacterial Biotransformation: Compound NOT metabolized
[11]
  Bacterial Biotransformation: Compound NOT metabolized
[12]
  Bacterial Biotransformation: Compound NOT metabolized
[13]
  Bacterial Biotransformation: Compound NOT metabolized
[14]
  Bacterial Biotransformation: Compound metabolized
[15]
  Bacterial Biotransformation: Compound metabolized
[16]
  Bacterial Biotransformation: Compound metabolized
[17]
  Bacterial Biotransformation: Compound metabolized
[18]
  Bacterial Biotransformation: Compound metabolized
[19]
  Bacterial Biotransformation: Compound NOT metabolized
[20]
  Bacterial Biotransformation: Compound NOT metabolized

## Br.COc1ccc2c(c1)[C@]13CCCC[C@@H]1[C@H](C2)N(C)CC3.O [DEXTROMETHORPHAN HYDROBROMIDE]
[1]
  Bacterial Biotransformation: Compound metabolized
[2]
  Bacterial Biotransformation: Compound NOT metabolized
[3]
  Bacterial Biotransformation: Compound NOT metabolized
[4]
  Bacterial Biotransformation: Compound NOT metabolized
[5]
  Bacterial Biotransformation: Compound NOT metabolized
[6]
  Bacterial Biotransformation: Compound NOT metabolized
[7]
  Bacterial Biotransformation: Compound NOT metabolized
[8]
  Bacterial Biotransformation: Compound metabolized
[9]
  Bacterial Biotransformation: Compound NOT metabolized
[10]
  Bacterial Biotransformation: Compound metabolized
[11]
  Bacterial Biotransformation: Compound NOT metabolized
[12]
  Bacterial Biotransformation: Compound NOT metabolized
[13]
  Bacterial Biotransformation: Compound NOT metabolized
[14]
  Bacterial Biotransformation: Compound metabolized
[15]
  Bacterial Biotransformation: Compound NOT metabolized
[16]
  Bacterial Biotransformation: Compound metabolized
[17]
  Bacterial Biotransformation: Compound NOT metabolized
[18]
  Bacterial Biotransformation: Compound metabolized
[19]
  Bacterial Biotransformation: Compound NOT metabolized
[20]
  Bacterial Biotransformation: Compound NOT metabolized

## CC(=O)Nc1ccc(OC(C)=O)cc1 [DIACETAMATE]
[1]
  Bacterial Biotransformation: Compound metabolized
[2]
  Bacterial Biotransformation: Compound metabolized
[3]
  Bacterial Biotransformation: Compound metabolized
[4]
  Bacterial Biotransformation: Compound metabolized
[5]
  Bacterial Biotransformation: Compound metabolized
[6]
  Bacterial Biotransformation: Compound metabolized
[7]
  Bacterial Biotransformation: Compound metabolized
[8]
  Bacterial Biotransformation: Compound metabolized
[9]
  Bacterial Biotransformation: Compound metabolized
[10]
  Bacterial Biotransformation: Compound metabolized
[11]
  Bacterial Biotransformation: Compound metabolized
[12]
  Bacterial Biotransformation: Compound metabolized
[13]
  Bacterial Biotransformation: Compound metabolized
[14]
  Bacterial Biotransformation: Compound metabolized
[15]
  Bacterial Biotransformation: Compound metabolized
[16]
  Bacterial Biotransformation: Compound metabolized
[17]
  Bacterial Biotransformation: Compound metabolized
[18]
  Bacterial Biotransformation: Compound metabolized
[19]
  Bacterial Biotransformation: Compound metabolized
[20]
  Bacterial Biotransformation: Compound metabolized

## CCN(CC)CCOC(=O)C1(C2CCCCC2)CCCCC1 [DICYCLOMINE]
[1]
  Bacterial Biotransformation: Compound metabolized
[2]
  Bacterial Biotransformation: Compound NOT metabolized
[3]
  Bacterial Biotransformation: Compound NOT metabolized
[4]
  Bacterial Biotransformation: Compound NOT metabolized
[5]
  Bacterial Biotransformation: Compound NOT metabolized
[6]
  Bacterial Biotransformation: Compound metabolized
[7]
  Bacterial Biotransformation: Compound NOT metabolized
[8]
  Bacterial Biotransformation: Compound metabolized
[9]
  Bacterial Biotransformation: Compound NOT metabolized
[10]
  Bacterial Biotransformation: Compound metabolized
[11]
  Bacterial Biotransformation: Compound metabolized
[12]
  Bacterial Biotransformation: Compound NOT metabolized
[13]
  Bacterial Biotransformation: Compound NOT metabolized
[14]
  Bacterial Biotransformation: Compound metabolized
[15]
  Bacterial Biotransformation: Compound metabolized
[16]
  Bacterial Biotransformation: Compound NOT metabolized
[17]
  Bacterial Biotransformation: Compound metabolized
[18]
  Bacterial Biotransformation: Compound metabolized
[19]
  Bacterial Biotransformation: Compound metabolized
[20]
  Bacterial Biotransformation: Compound NOT metabolized
